Results: PubChem BioAssay (NCI)
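Grown in 96-well plates, cells were treated for 48 hours with each compound at five concentrations. Insufficient inhibition: endpoint recorded as highest concentration tested. TGI denotes the concentration required for complete inhibition of growth.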

Assays:
Experiment in all cases: growth of human tumour cells (NCI), 48 h
NCI-H23 lung = tested on: NCI-H23 lung
SR leukemia = tested on: SR leukemia
HS 578T breast = tested on: HS 578T breast
SK-MEL-2 melanoma = tested on: SK-MEL-2 melanoma
NCI/ADR-RES ovarian = tested on: NCI/ADR-RES ovarian
KM12 colon = tested on: KM12 colon
MOLT-4 leukemia = tested on: MOLT-4 leukemia
CAKI-1 renal = tested on: CAKI-1 renal
CCRF-CEM leukemia = tested on: CCRF-CEM leukemia
MDA-MB-435 = tested on: MDA-MB-435
HCT-15 colon = tested on: HCT-15 colon
BT-549 breast = tested on: BT-549 breast
SF-268 CNS = tested on: SF-268 CNS
NCI-H226 lung = tested on: NCI-H226 lung
NCI-H522 lung = tested on: NCI-H522 lung
COLO 205 colon = tested on: COLO 205 colon
DU-145 prostate = tested on: DU-145 prostate
HOP-62 NSCLC = tested on: HOP-62 NSCLC
UO-31 renal = tested on: UO-31 renal
SW-620 colon = tested on: SW-620 colon
A549 NSCLC = tested on: A549 NSCLC
MCF7 breast = tested on: MCF7 breast
NCI-H460 lung = tested on: NCI-H460 lung
SK-MEL-28 melanoma = tested on: SK-MEL-28 melanoma
SF-539 CNS = tested on: SF-539 CNS
SF-295 CNS = tested on: SF-295 CNS
786-0 renal = tested on: 786-0 renal
LOX IMVI melanoma = tested on: LOX IMVI melanoma
T-47D breast = tested on: T-47D breast
OVCAR-5 ovarian = tested on: OVCAR-5 ovarian
ACHN renal = tested on: ACHN renal
M14 melanoma = tested on: M14 melanoma
SN12C renal = tested on: SN12C renal
A498 renal = tested on: A498 renal
SK-OV-3 ovarian = tested on: SK-OV-3 ovarian
HCC-2998 colon = tested on: HCC-2998 colon
EKVX NSCLC = tested on: EKVX NSCLC
HOP-92 NSCLC = tested on: HOP-92 NSCLC
K-562 leukemia = tested on: K-562 leukemia
OVCAR-8 ovarian = tested on: OVCAR-8 ovarian
IGROV1 ovarian = tested on: IGROV1 ovarian
MDA-MB-231 breast = tested on: MDA-MB-231 breast
RPMI-8226 leukemia = tested on: RPMI-8226 leukemia
TK-10 renal = tested on: TK-10 renal
UACC-257 melanoma = tested on: UACC-257 melanoma
UACC-62 melanoma = tested on: UACC-62 melanoma
HT29 colon = tested on: HT29 colon
OVCAR-3 ovarian = tested on: OVCAR-3 ovarian
HCT-116 colon = tested on: HCT-116 colon
MALME-3M melanoma = tested on: MALME-3M melanoma
SK-MEL-5 melanoma = tested on: SK-MEL-5 melanoma
U251 CNS = tested on: U251 CNS
HL-60(TB) leukemia = tested on: HL-60(TB) leukemia
SNB-75 CNS = tested on: SNB-75 CNS
PC-3 prostate = tested on: PC-3 prostate
MDA-N = tested on: MDA-N
OVCAR-4 ovarian = tested on: OVCAR-4 ovarian
RXF 393 renal = tested on: RXF 393 renal
SNB-19 CNS = tested on: SNB-19 CNS

Compound Cc1ccc(NC(=O)CC(=O)N2N=C(N(C)c3ccccc3)CC2c2ccccc2)cc1 (stereo not drawn) has a TGI (NCI-H23 lung) greater than 100 µM, a TGI (SR leukemia) greater than 100 µM and a TGI (HS 578T breast) greater than 100 µM. For the same compound, the TGI (SK-MEL-2 melanoma) was greater than 100 µM, the TGI (NCI/ADR-RES ovarian) was greater than 100 µM and the TGI (KM12 colon) was greater than 100 µM. It also gave a TGI (MOLT-4 leukemia) greater than 100 µM, a TGI (CAKI-1 renal) greater than 100 µM and a TGI (CCRF-CEM leukemia) greater than 100 µM. It also gave a TGI (MDA-MB-435) greater than 100 µM, a TGI (HCT-15 colon) greater than 100 µM and a TGI (BT-549 breast) greater than 100 µM. For the same compound, the TGI (SF-268 CNS) was greater than 100 µM, the TGI (NCI-H226 lung) was greater than 100 µM and the TGI (NCI-H522 lung) was greater than 100 µM. The TGI (COLO 205 colon) was greater than 100 µM, the TGI (DU-145 prostate) was greater than 100 µM and the TGI (HOP-62 NSCLC) was greater than 100 µM. For the same compound, the TGI (UO-31 renal) was greater than 100 µM, the TGI (SW-620 colon) was greater than 100 µM and the TGI (A549 NSCLC) was greater than 100 µM. It also gave a TGI (MCF7 breast) greater than 100 µM, a TGI (NCI-H460 lung) greater than 100 µM and a TGI (SK-MEL-28 melanoma) greater than 100 µM. For the same compound, the TGI (SF-539 CNS) was greater than 100 µM, the TGI (SF-295 CNS) was greater than 100 µM and the TGI (786-0 renal) was greater than 100 µM. The TGI (LOX IMVI melanoma) was greater than 100 µM, the TGI (T-47D breast) was greater than 100 µM and the TGI (OVCAR-5 ovarian) was greater than 100 µM. It also gave a TGI (ACHN renal) greater than 100 µM, a TGI (M14 melanoma) greater than 100 µM and a TGI (SN12C renal) greater than 100 µM. For the same compound, the TGI (A498 renal) was greater than 100 µM, the TGI (SK-OV-3 ovarian) was greater than 100 µM and the TGI (HCC-2998 colon) was greater than 100 µM. It also gave a TGI (EKVX NSCLC) greater than 100 µM, a TGI (HOP-92 NSCLC) greater than 100 µM and a TGI (K-562 leukemia) greater than 100 µM. For the same compound, the TGI (OVCAR-8 ovarian) was greater than 100 µM, the TGI (IGROV1 ovarian) was greater than 100 µM and the TGI (MDA-MB-231 breast) was greater than 100 µM. It also gave a TGI (RPMI-8226 leukemia) greater than 100 µM, a TGI (TK-10 renal) greater than 100 µM and a TGI (UACC-257 melanoma) greater than 100 µM. The TGI (UACC-62 melanoma) was greater than 100 µM, the TGI (HT29 colon) was greater than 100 µM and the TGI (OVCAR-3 ovarian) was greater than 100 µM. It also gave a TGI (HCT-116 colon) greater than 100 µM, a TGI (MALME-3M melanoma) greater than 100 µM and a TGI (SK-MEL-5 melanoma) greater than 100 µM. For the same compound, the TGI (U251 CNS) was greater than 100 µM, the TGI (HL-60(TB) leukemia) was greater than 100 µM and the TGI (SNB-75 CNS) was 77.9 µM. It also gave a TGI (PC-3 prostate) greater than 100 µM, a TGI (MDA-N) greater than 100 µM and a TGI (OVCAR-4 ovarian) greater than 100 µM. The TGI (RXF 393 renal) was greater than 100 µM and the TGI (SNB-19 CNS) was greater than 100 µM.
For CC1(C)Oc2ccccc2OC1O (stereo not drawn), the TGI (NCI-H23 lung) was greater than 100 µM, the TGI (SR leukemia) was greater than 100 µM and the TGI (HS 578T breast) was greater than 100 µM. It also gave a TGI (SK-MEL-2 melanoma) greater than 100 µM, a TGI (NCI/ADR-RES ovarian) greater than 100 µM and a TGI (KM12 colon) greater than 100 µM. The TGI (MOLT-4 leukemia) was greater than 100 µM, the TGI (CAKI-1 renal) was greater than 100 µM and the TGI (CCRF-CEM leukemia) was greater than 100 µM. For the same compound, the TGI (MDA-MB-435) was greater than 100 µM, the TGI (HCT-15 colon) was greater than 100 µM and the TGI (BT-549 breast) was greater than 100 µM. For the same compound, the TGI (SF-268 CNS) was greater than 100 µM, the TGI (NCI-H226 lung) was greater than 100 µM and the TGI (NCI-H522 lung) was greater than 100 µM. For the same compound, the TGI (COLO 205 colon) was greater than 100 µM, the TGI (DU-145 prostate) was greater than 100 µM and the TGI (HOP-62 NSCLC) was greater than 100 µM. The TGI (UO-31 renal) was greater than 100 µM, the TGI (SW-620 colon) was greater than 100 µM and the TGI (A549 NSCLC) was greater than 100 µM. The TGI (MCF7 breast) was greater than 100 µM, the TGI (NCI-H460 lung) was greater than 100 µM and the TGI (SK-MEL-28 melanoma) was greater than 100 µM. For the same compound, the TGI (SF-539 CNS) was greater than 100 µM, the TGI (SF-295 CNS) was greater than 100 µM and the TGI (786-0 renal) was greater than 100 µM. For the same compound, the TGI (LOX IMVI melanoma) was greater than 100 µM, the TGI (T-47D breast) was greater than 100 µM and the TGI (OVCAR-5 ovarian) was greater than 100 µM. The TGI (ACHN renal) was greater than 100 µM, the TGI (M14 melanoma) was greater than 100 µM and the TGI (SN12C renal) was greater than 100 µM. For the same compound, the TGI (A498 renal) was greater than 100 µM, the TGI (SK-OV-3 ovarian) was greater than 100 µM and the TGI (HCC-2998 colon) was greater than 100 µM. For the same compound, the TGI (EKVX NSCLC) was greater than 100 µM, the TGI (HOP-92 NSCLC) was greater than 100 µM and the TGI (K-562 leukemia) was greater than 100 µM. It also gave a TGI (OVCAR-8 ovarian) greater than 100 µM, a TGI (IGROV1 ovarian) greater than 100 µM and a TGI (MDA-MB-231 breast) greater than 100 µM. The TGI (RPMI-8226 leukemia) was greater than 100 µM, the TGI (TK-10 renal) was greater than 100 µM and the TGI (UACC-257 melanoma) was greater than 100 µM. For the same compound, the TGI (UACC-62 melanoma) was greater than 100 µM, the TGI (HT29 colon) was greater than 100 µM and the TGI (OVCAR-3 ovarian) was greater than 100 µM. The TGI (HCT-116 colon) was greater than 100 µM, the TGI (MALME-3M melanoma) was greater than 100 µM and the TGI (SK-MEL-5 melanoma) was greater than 100 µM. The TGI (U251 CNS) was greater than 100 µM, the TGI (HL-60(TB) leukemia) was greater than 100 µM and the TGI (SNB-75 CNS) was greater than 100 µM. It also gave a TGI (PC-3 prostate) greater than 100 µM, a TGI (MDA-N) greater than 100 µM and a TGI (OVCAR-4 ovarian) greater than 100 µM. The TGI (RXF 393 renal) was greater than 100 µM and the TGI (SNB-19 CNS) was greater than 100 µM.
